Measurements from patent US7709516B2, “Helix 12 directed non-steroidal antiandrogens” (Endorecherche, Inc., priority 2005, dated 2010).
pIC50: −log10 of the molar value. Like-named read-outs stand apart in the source and are kept apart here.

What was measured:
[1] = system: Shionogi mouse mammary carcinoma cells; test: Androgenic/antiandrogenic activity: inhibition of DHT-stimulated Shionogi cell number; format: cell-based; details: DHT-stimulated Shionogi cell number; for pIC50: Mus musculus
[2] = system: rat prostate, seminal vesicle, levator ani muscle; test: Systemic antiandrogenic activity in orchidectomized immature male rats with DHT implant; format: in vivo; details: Rattus norvegicus, 168 h
Human Androgen Receptor = target: T1, Human Androgen Receptor (Homo sapiens, UniProt P10275); test: Androgen receptor binding assay ([3H]R1881, HAP) in cytosol of HEK-293 cells transfected with hAR; details: relative to R1881 = 100, transfected cells
T1 sequence (P10275 1-920): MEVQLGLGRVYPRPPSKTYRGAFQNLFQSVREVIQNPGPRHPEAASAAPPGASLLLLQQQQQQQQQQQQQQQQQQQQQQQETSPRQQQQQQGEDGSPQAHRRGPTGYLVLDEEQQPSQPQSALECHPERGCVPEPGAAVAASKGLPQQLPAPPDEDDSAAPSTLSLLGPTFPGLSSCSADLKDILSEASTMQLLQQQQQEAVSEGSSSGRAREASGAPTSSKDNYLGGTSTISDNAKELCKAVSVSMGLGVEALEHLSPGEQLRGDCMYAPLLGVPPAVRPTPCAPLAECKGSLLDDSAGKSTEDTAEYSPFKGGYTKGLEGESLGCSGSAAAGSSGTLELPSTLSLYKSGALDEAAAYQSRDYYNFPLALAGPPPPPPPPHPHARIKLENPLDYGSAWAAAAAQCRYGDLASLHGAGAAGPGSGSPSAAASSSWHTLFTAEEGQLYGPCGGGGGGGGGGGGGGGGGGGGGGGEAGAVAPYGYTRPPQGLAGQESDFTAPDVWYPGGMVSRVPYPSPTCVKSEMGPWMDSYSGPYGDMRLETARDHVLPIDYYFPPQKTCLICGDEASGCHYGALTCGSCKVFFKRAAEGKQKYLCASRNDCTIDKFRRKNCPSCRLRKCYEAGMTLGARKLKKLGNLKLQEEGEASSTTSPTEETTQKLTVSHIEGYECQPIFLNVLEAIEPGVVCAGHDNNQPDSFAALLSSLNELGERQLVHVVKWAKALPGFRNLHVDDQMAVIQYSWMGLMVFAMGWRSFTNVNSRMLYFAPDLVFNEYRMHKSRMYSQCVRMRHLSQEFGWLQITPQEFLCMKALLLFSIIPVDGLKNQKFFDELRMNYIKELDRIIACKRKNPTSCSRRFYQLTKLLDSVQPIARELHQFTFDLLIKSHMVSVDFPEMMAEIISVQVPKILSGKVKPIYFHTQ

[3] = read-out: Shionogi Antiandrogenic Activity IC50, Table 1
[4] = Prostate cell, po, read-out: Lev Ani % inhibition, Table 1, rat +DHT, p.o, levator ani, 0.5 mg/animal daily 7 days
[5] = Prostate cell, po, read-out: SV % inhibition, Table 1, rat +DHT, p.o, seminal vesicle, 0.5 mg/animal daily 7 days
[6] = po, read-out: Prostate % inhibition, Table 1, rat +DHT, p.o, 0.5 mg/animal daily 7 days
[7] = read-out: Lev Ani % inhibition, Table 1, rat +DHT, s.c. or p.o. (route not marked), levator ani, 0.5 mg/animal daily 7 days
[8] = read-out: Prostate % inhibition, Table 1, rat +DHT, s.c. or p.o. (route not marked in cell), 0.5 mg/animal daily 7 days
[9] = read-out: SV % inhibition, Table 1, rat +DHT, s.c. or p.o. (route not marked), seminal vesicle, 0.5 mg/animal daily 7 days
[10] = read-out: Shionogi Antiandrogenic Activity IC50, Table 2
[11] = read-out: Lev Ani % inhibition, Table 2, rat +DHT, s.c. or p.o. (route not marked), levator ani, 0.5 mg/animal daily 7 days
[12] = read-out: Prostate % inhibition, Table 2, rat +DHT, s.c. or p.o. (route not marked), 0.5 mg/animal daily 7 days
[13] = read-out: SV % inhibition, Table 2, rat +DHT, s.c. or p.o. (route not marked), seminal vesicle, 0.5 mg/animal daily 7 days

SMILES | pIC50 [1, 3] | Human Androgen Receptor Binding (%) RBA R1881 = 100 (Human Androgen Receptor; Table 1) | inhibition in vivo at 0.5 mg [2, 7] | inhibition in vivo at 0.5 mg [2, 8] | inhibition in vivo at 0.5 mg [2, 9] | other results
CC1(C)C(=O)N(c2ccc(C#N)c(C(F)(F)F)c2)C(=S)N1CCCOc1ccc(SC(F)(F)F)cc1 [EM-8342] | 7.18 | 0.5% | – | – | – | inhibition in vivo at 0.5 mg [2, 4]: 53%; inhibition in vivo at 0.5 mg [2, 5]: 79%; inhibition in vivo at 0.5 mg [2, 6]: 43%
CCNCc1ccc(OCCCN2C(=S)N(c3ccc(C#N)c(C(F)(F)F)c3)C(=O)C2(C)C)cc1 [EM-7148] | 8.21 | 12.0% | 75% | 58% | 85% | –
CCCNCc1ccc(OCCCN2C(=S)N(c3ccc(C#N)c(C(F)(F)F)c3)C(=O)C2(C)C)cc1 [EM-7227] | 7.97 | 18.0% | 1% | 35% | 77% | –
CS(=O)(=O)c1ccc(OCCC2(O)CCN(c3ccc(C#N)c(C(F)(F)F)c3)CC2)cc1 [EM-8159] | – | – | – | – | – | pIC50 [1, 10]: 7.48; inhibition in vivo at 0.5 mg [2, 11]: 23%; inhibition in vivo at 0.5 mg [2, 12]: 24%; inhibition in vivo at 0.5 mg [2, 13]: 51%; Human Androgen Receptor Binding (%) RBA R1881 = 100 (Human Androgen Receptor; Table 2): <1.0%
Cc1cc(CN2CCOCC2)ccc1OCCCN1C(=S)N(c2ccc(C#N)c(C(F)(F)F)c2)C(=O)C1(C)C [EM-7366] | 7.66 | 209.0% | 16% | 26% | 70% | –
Cc1cc(CNC(C)C)ccc1OCCCN1C(=S)N(c2ccc(C#N)c(C(F)(F)F)c2)C(=O)C1(C)C [EM-7297] | 8.20 | 59.0% | 31% | 29% | 37% | –
CC(C)NCc1ccc(OCCCN2C(=S)N(c3ccc(C#N)c(C(F)(F)F)c3)C(=O)C2(C)C)cn1 [EM-7926] | 8.10 | 1.5% | 14% | 44% | 72% | –
Cc1cc(=O)oc2cc(OCCCN3C(=S)N(c4ccc(C#N)c(C(F)(F)F)c4)C(=O)C3(C)C)ccc12 [EM-8329] | 8.04 | 170.0% | – | – | – | inhibition in vivo at 0.5 mg [2, 4]: 17%; inhibition in vivo at 0.5 mg [2, 5]: 58%; inhibition in vivo at 0.5 mg [2, 6]: 42%
CCC(=O)c1cccc(OCCCN2C(=S)N(c3ccc(C#N)c(C(F)(F)F)c3)C(=O)C2(C)C)c1 [EM-7113, 4-{4,4-dimethyl-5-oxo-3-[3-(3-propionyl-phenoxy)-propyl]-2-thioxo-imidazolidin-1-yl}-2-trifluoromethyl-benzonitrile] | 7.16 | 30.5% | 58% | 42% | 70% | –
CC(=O)Nc1ccc(OCCCN2C(=S)N(c3ccc(C#N)c(C(F)(F)F)c3)C(=O)C2(C)C)cc1 [EM-8101] | 7.74 | 12.1% | – | – | – | inhibition in vivo at 0.5 mg [2, 4]: 43%; inhibition in vivo at 0.5 mg [2, 5]: 41%; inhibition in vivo at 0.5 mg [2, 6]: 8%
CC1(C)C(=O)N(c2ccc(C#N)c(C(F)(F)F)c2)C(=S)N1CCCOc1ccc2c(C(F)(F)F)cc(=O)oc2c1 [EM-8393] | 7.35 | 7.7% | – | – | – | inhibition in vivo at 0.5 mg [2, 4]: 35%; inhibition in vivo at 0.5 mg [2, 5]: 60%; inhibition in vivo at 0.5 mg [2, 6]: 3%
CCN(C)Cc1ccc(OCCCN2C(=S)N(c3ccc(C#N)c(C(F)(F)F)c3)C(=O)C2(C)C)cc1 [EM-7242] | 8.01 | 18.0% | 55% | 41% | 72% | –
CCCS(=O)(=O)c1ccc(OCCCN2C(=S)N(c3ccc(C#N)c(C(F)(F)F)c3)C(=O)C2(C)C)cc1 [EM-8225] | 7.65 | 25.8% | – | – | – | inhibition in vivo at 0.5 mg [2, 4]: 53%; inhibition in vivo at 0.5 mg [2, 5]: 79%; inhibition in vivo at 0.5 mg [2, 6]: 45%
CCCS(=O)(=O)c1ccc(OCCC2(O)CCN(c3ccc(C#N)c(C(F)(F)F)c3)CC2)cc1 [EM-8229] | – | – | – | – | – | pIC50 [1, 10]: 7.30; inhibition in vivo at 0.5 mg [2, 11]: 16%; inhibition in vivo at 0.5 mg [2, 12]: 3%; inhibition in vivo at 0.5 mg [2, 13]: 19%; Human Androgen Receptor Binding (%) RBA R1881 = 100 (Human Androgen Receptor; Table 2): <1.0%
COC1(CCOc2ccc(CN3CCCC3)cc2C)CCN(c2ccc(C#N)c(C(F)(F)F)c2)CC1 [EM-8157] | – | – | – | – | – | pIC50 [1, 10]: 7.27; inhibition in vivo at 0.5 mg [2, 11]: 28%; inhibition in vivo at 0.5 mg [2, 12]: 25%; inhibition in vivo at 0.5 mg [2, 13]: 56%; Human Androgen Receptor Binding (%) RBA R1881 = 100 (Human Androgen Receptor; Table 2): <1.0%
CN(C)Cc1ccc(OCCCN2C(=O)N(c3ccc(C#N)c(C(F)(F)F)c3)C(=O)C2(C)C)cc1 [EM-7334, 4-{3-[3-(4-Dimethylaminomethyl-phenoxy)-propyl]-4,4-dimethyl-2,5-dioxo-imidazolidin-1-yl}-2-trifluoromethyl-benzonitrile] | – | 0.5% | – | 14% | 26% | pIC50 ([1]; Table 1, read-out: Shionogi Antiandrogenic Activity IC50): 6.93
Cc1cc(CN2CCOCC2)ccc1OCCC1(O)CCN(c2ccc(C#N)c3ccccc23)CC1 [EM-7676] | – | – | – | – | – | pIC50 ([1]; Table 2, read-out: Shionogi Antiandrogenic Activity IC50): 6.83; inhibition in vivo at 0.5 mg ([2]; read-out: Lev Ani % inhibition): 0%; inhibition in vivo at 0.5 mg ([2]; read-out: Prostate % inhibition): 0%; inhibition in vivo at 0.5 mg ([2]; read-out: SV % inhibition): 3%; Human Androgen Receptor Binding (%) RBA R1881 = 100 (Human Androgen Receptor; Table 2): 0.3%
Cc1cc2c(C)c(C)c(=O)oc2cc1OCCCN1C(=S)N(c2ccc(C#N)c(C(F)(F)F)c2)C(=O)C1(C)C [EM-8385] | – | 50.5% | – | – | – | Shionogi Antiandrogenic Activity IC50 ([1]; Table 1): Partial agonist; inhibition in vivo at 0.5 mg [2, 4]: 20%; inhibition in vivo at 0.5 mg [2, 5]: 41%; inhibition in vivo at 0.5 mg [2, 6]: 17%
CC(C)NCc1ccc(OCCCN2C(=S)N(c3ccc(C#N)c(C(F)(F)F)c3)C(=O)C2(C)C)c(F)c1 [EM-7918] | 8.18 | 16.9% | 53% | 44% | 64% | –
CC1(C)C(=O)N(c2ccc(C#N)c(Cl)c2)C(=S)N1CCCOc1ccc(CNC2CCCC2)cc1 [EM-7819] | 8.08 | 12.9% | 44% | 54% | 80% | –
CCC(C)NCc1ccc(OCCCN2C(=S)N(c3ccc(C#N)c(C(F)(F)F)c3)C(=O)C2(C)C)cc1 (stereo not drawn) [EM-7225] | 7.90 | 15.3% | 14% | 52% | 71% | –
CC(C)NCc1ccc(OCCCN2C(=S)N(c3ccc(C#N)c(C(F)(F)F)c3)C(=O)C2(C)C)c(Cl)c1 [EM-7919] | 8.17 | 29.0% | 9% | 28% | 53% | –
Cc1cc(CN2CCCC2C)ccc1OCCC1(O)CCN(c2ccc(C#N)c(Cl)c2)CC1 (stereo not drawn) [EM-7791] | – | – | – | – | – | pIC50 [1, 10]: 7.69; inhibition in vivo at 0.5 mg [2, 11]: 14%; inhibition in vivo at 0.5 mg [2, 12]: 0%; inhibition in vivo at 0.5 mg [2, 13]: 29%; Human Androgen Receptor Binding (%) RBA R1881 = 100 (Human Androgen Receptor; Table 2): 1.0%
